Experimental data: patent publication US7632813B2, “Bone densifying agent characterized by use of cathepsin K inhibitor with PTH” (Ono Pharmaceutical Co., Ltd., priority 2004, dated 2009)
Where no end group is shown, it is not given here.

Experiments:
Type in all cases: in vivo
[1] = test system: ovariectomized rat osteoporosis model (OVX); assay: Experiment 2: urinary CTX concentration in OVX rats; settings: Experiment 2, FIG. 6
[2] = test system: ovariectomized rat osteoporosis model (OVX); assay: Experiment 2 (administration schedule 2): BMD of tibia by pQCT in OVX rats; settings: Experiment 2, FIG. 5; for BMD of the tibia on the 83rd day, each alone: 83 days from next day of OVX, sole administration
[3] = test system: ovariectomized rat osteoporosis model (OVX); assay: Experiment 1: serum osteocalcin (OC) concentration, bone formation marker, in OVX rats; settings: for serum OC concentration (bone formation marker) at intermediate autopsy: Experiment 1, FIG. 2, repeated oral administration for 55 days; for serum OC concentration on the 83rd day, in combination with PTH: combination with PTH compared with PTH sole administration
Description: (§1) For the purpose of clarifying the characteristics, the effect of a cathepsin K inhibitor (a bone resorption inhibitor) in combination with a type of PTH (a bone formation stimulator) was examined using an ovariectomized rat osteoporosis model (abbreviated as OVX hereafter). The effect of a bisphosphonate (BP) in combination with a type of PTH was also examined. The effects were compared with each other.
(§2) In the following examples, PTH (1-34) is abbreviated as PTH unless specified. 2) Test Method Experiment 1 (Administration Schedule 1): Administration in Combination with PTH After Repeated Administration of Bone Resorption Inhibitor
(§3) Female retired rats (F344/NSlc) were used. At the age of 6 months, 87 rats were assigned to OVX (ovariectomy) and the other 10 rats were assigned to sham operation.
(§4) Another 15 rats were assigned to OVX and 5 rats were assigned to sham operation, in order to these groups to an autopsy in the course.
(§5) To the group the compound was administered; a bone resorption inhibitor was administered orally from the next day of OVX over a period of 83 days.
On 55 days after OVX, the autopsy was done in autopsy group. Other groups to which the compound was administered, a bone resorption inhibitor was administered orally, and PTH or vehicle (saline containing 0.1% BSA) was administered subcutaneously, 55 days after OVX. […] The interval between the first and the second administration was 5-7 hours.
(§6) PTH was administered by subcutaneous injection from the back three times a week by a dose of 10 μg/kg from the 57th day after OVX. The drugs were administed according to the grouping of table 1.
(§7) In the group in which the compound was administered, on the 83rd day after OVX, BMD of tibia, lumbar BMD, concentration of urinary C-terminal telopeptide of type I collagen (CTX) and serum osteocalcin (OC) were measured. In the autopsy groups, concentration of urinary CTX and serum OC were measured on samples from the 55th day.
Fifty-five days after administration, in the autopsy, collected serum was used to measure the serum OC concentration with a kit for OC measurement (BIOTRAK; Osteocalcin, rat ELISA system).
(§8) In order to compare the sham group and the OVX control group, t-test (EXSAS (version 6.1), ARM SYSTEX CO., LTD.); in order to compare the effectiveness of the test compounds, Tukey test (EXSAS (version 6.1), ARM SYSTEX CO., LTD.), were used respectively. Less than 5% was assumed to be a significant difference.

[4] = test system: ovariectomized rat osteoporosis model (OVX); assay: Experiment 1 (administration schedule 1): BMD of left proximal tibia by pQCT in OVX rats; settings: for BMD of the left leg tibia (4 mm slice from proximal end) at intermediate autopsy: Experiment 1, FIG. 1, oral sole administration from next day of OVX, intermediate autopsy 56 days after OVX; for BMD of the left leg tibia on the 83rd day, in combination with PTH / BMD of the left leg tibia on the 83rd day, each alone: Experiment 1, FIG. 3; for BMD of the left leg tibia on the 83rd day, in combination with PTH: bone resorption inhibitor 83 days orally plus PTH 10 μg/kg s.c. from 57th day, versus PTH alone; for BMD of the left leg tibia on the 83rd day, each alone: sole administration, OVX-induced BMD loss
Description: as §1, §2, §3, §4, §5
[…] Other groups to which the compound was administered, a bone resorption inhibitor was administered orally, and PTH or vehicle (saline containing 0.1% BSA) was administered subcutaneously, 55 days after OVX. […] The interval between the first and the second administration was 5-7 hours.
as §6, §7
The BMD was determined by measurement device of peripheral BMD (pQCT: peripheral Quantitative Computed Tomography, XCT-Research SA+Stratec Medizintechnik GmbH, version 5.40) with voxel size 0.12 mm. The BMD of the left proximal tibia (at a point 4 mm from the proximal end) was measured.
as §8

[5] = test system: ovariectomized rat osteoporosis model (OVX); assay: Experiment 1: urinary CTX concentration, bone resorption marker, in OVX rats; settings: Experiment 1, FIG. 4; for urinary CTX concentration on the 83rd day, combination administration with PTH: in combination with PTH
Description: For the purpose of clarifying the characteristics, the effect of a cathepsin K inhibitor (a bone resorption inhibitor) in combination with a type of PTH (a bone formation stimulator) was examined using an ovariectomized rat osteoporosis model (abbreviated as OVX hereafter). The effect of a bisphosphonate (BP) in combination with a type of PTH was also examined. The effects were compared with each other. • (1) a solution of the compound (I): […] In the following examples, PTH (1-34) is abbreviated as PTH unless specified. 2) Test Method Experiment 1 (Administration Schedule 1): Administration in Combination with PTH After Repeated Administration of Bone Resorption Inhibitor Female retired rats ([…] used. At the age of 6 months, 87 rats were assigned to OVX (ovariectomy) and the other 10 rats were assigned to sham operation. To the group the compound was administered; a bone resorption inhibitor was administered orally from the next day of OVX over a period of 83 days. […] On 55 days after OVX, the autopsy was done in autopsy group. Other groups to which the compound was administered, a bone resorption inhibitor was administered orally, and PTH or vehicle (saline containing 0.1% BSA) was administered subcutaneously, 55 days after OVX. […] The interval between the first and the second administration was 5-7 hours. PTH was administered by subcutaneous injection from the back three times a week by a dose of 10 μg/kg from the 57th day after OVX. The drugs were administed according to the grouping of table 1. In the group in which the compound was administered, on the 83rd day after OVX, BMD of tibia, lumbar BMD, concentration of urinary C-terminal telopeptide of type I collagen (CTX) and serum osteocalcin (OC) were measured. In the autopsy groups, concentration of urinary CTX and serum OC were measured on samples from the 55th day. Urine was collected before the day of an autopsy, and urinary CTX was measured with a kit for rat CTX measurement (RatLaps ELISA; nordicbioscience). In measurement of absorbance, microplate reader (SPECTRA MAX 250, Japan Molecular Devices Inc.) was used. […] In order to compare the sham group and the OVX control group, […] CO., LTD.); in order to compare the effectiveness of the test compounds, Tukey test ([…] CO., LTD.), were used respectively. Less than 5% was assumed to be a significant difference.

## CN1CCS/C1=N\NC(=O)C(=O)C(NC(=O)C1CCCCCC1)C1CCOCC1.Cl (stereo not drawn) [compound (I), N-{3-[(2Z)-2-(3-methyl-1,3-thiazolidin-2-ylidene)hydrazino]-2,3-dioxo-1-tetrahydro-2H-pyran-4-ylpropyl}cycloheptanecarboxamide hydrochloride]
[1]; in combination with PTH
  urinary CTX concentration (bone resorption marker) on the 83rd day, combination administration: has an inhibitory effect on urinary CTX concentration
[1]; sole administration group
  urinary CTX concentration (bone resorption marker) on the 83rd day, sole administration: has an inhibitory effect on urinary CTX concentration
[2]
  BMD of the tibia on the 83rd day, each alone: inhibited the reduction of BMD of tibia caused by OVX
[2]; 83 days in combination with PTH 3 μg/kg s.c.
  effect on increase of BMD of tibia in combination with PTH: greater than that of ALN in combination with PTH
[3]
  serum OC concentration (bone formation marker) at intermediate autopsy: not decreased
[3]; Experiment 1, FIG. 4
  serum OC concentration on the 83rd day, in combination with PTH: did not decrease the serum OC concentration significantly
[4]
  BMD of the left leg tibia (4 mm slice from proximal end) at intermediate autopsy: showed an increasing effect of BMD in the tibia
  BMD of the left leg tibia on the 83rd day, in combination with PTH: showed an additive effect in BMD of tibia
  BMD of the left leg tibia on the 83rd day, each alone: suppressed the OVX-induced BMD loss in the tibia
[5]
  urinary CTX concentration on the 83rd day, combination administration with PTH: showed an inhibitory effect
  urinary CTX concentration on the 83rd day, sole administration: showed an inhibitory effect

## NCCCC(O)(P(=O)(O)O)P(=O)(O)O [ALN, Alendronate sodium hydrate]
[1]
  inhibitory effect on urinary CTX compared with compound (I): weaker than that of compound (I)
[2]
  BMD of the tibia on the 83rd day, each alone: inhibited the reduction of BMD of tibia caused by OVX
[3]
  serum OC concentration (bone formation marker) at intermediate autopsy: decreased
[3]; Experiment 1, FIG. 4
  serum OC concentration on the 83rd day, in combination with PTH: significantly decreased serum OC concentration
[4]
  BMD of the left leg tibia (4 mm slice from proximal end) at intermediate autopsy: showed an increasing effect of BMD in the tibia
  BMD of the left leg tibia on the 83rd day, in combination with PTH: did not show any additive effect
  BMD of the left leg tibia on the 83rd day, each alone: suppressed the OVX-induced BMD loss in the tibia
[5]
  urinary CTX concentration on the 83rd day, combination administration with PTH: showed a urinary CTX inhibitory effect
  urinary CTX concentration on the 83rd day, sole administration: showed a urinary CTX inhibitory effect
[5]; sole and combination administration with PTH
  urinary CTX inhibitory effect compared with compound (I): weaker than that of compound (I)

## human PTH (1-34) amide (SVSEIQLMHNLGKHLNSMERVEWLRKKLQDVHNF-NH2; UniProt P01270 32-65, looked up, fragment) [partial peptide of PTH, bone formation stimulator (APC Lot.N05129A1)]
[2]
  BMD of the tibia on the 83rd day, each alone: inhibited the reduction of BMD of tibia caused by OVX
[3]; Experiment 1, FIG. 4, PTH 10 μg/kg s.c.
  serum OC concentration on the 83rd day, PTH sole administration: increased
[4]
  BMD of the left leg tibia on the 83rd day, each alone: suppressed the OVX-induced BMD loss in the tibia
